For this assay, the target named is c-Src (Homo sapiens, UniProt P12931). Kind of assay: c-Src protein kinase assay. The format is biochemical. As to conditions: Table 5. The procedure: Several of the invention compounds have been evaluated in a standard assay to measure their ability to inhibit cellular Src protein kinase (c-Src). […] The assay was carried out as follows:
C-Src kinase was purified from baculovirus infected insect cell lysates using an antipeptide monoclonal antibody directed against the N-terminal amino acids (amino acids 2-17) of c-Src. The antibody, covalently linked to 0.65 μm latex beads, was added to a suspension of insect cell lysis buffer comprised of 150 mM NaCl, 50 mM Tris pH 7.5, 1 mM DTT, 1% NP-40, 2 mM EGTA, 1 mM sodium vanadate, 1 mM PMSF, 1 μg/mL each of leupeptin, pepstatin, and aprotinin. Insect cell lysate containing c-Src protein was incubated with these beads for 3 to 4 hours at 4° C. with rotation. At the end of the lysate incubation, the beads were rinsed three times in lysis buffer, resuspended in lysis buffer containing 10% glycerol, and frozen. These latex beads were thawed, rinsed three times in assay buffer (40 mM Tris, pH 7.5, 5 mM […]) and suspended in the same buffer. […] The filters were then punched, counted in a liquid scintillation counter, and the data examined for inhibitory activity in comparison to a known inhibitor such as erbstatin. […]

pIC50: −log10 of the molar value.

Sequence of c-Src (P12931 whole entry, species assumed, the tested form may be a part): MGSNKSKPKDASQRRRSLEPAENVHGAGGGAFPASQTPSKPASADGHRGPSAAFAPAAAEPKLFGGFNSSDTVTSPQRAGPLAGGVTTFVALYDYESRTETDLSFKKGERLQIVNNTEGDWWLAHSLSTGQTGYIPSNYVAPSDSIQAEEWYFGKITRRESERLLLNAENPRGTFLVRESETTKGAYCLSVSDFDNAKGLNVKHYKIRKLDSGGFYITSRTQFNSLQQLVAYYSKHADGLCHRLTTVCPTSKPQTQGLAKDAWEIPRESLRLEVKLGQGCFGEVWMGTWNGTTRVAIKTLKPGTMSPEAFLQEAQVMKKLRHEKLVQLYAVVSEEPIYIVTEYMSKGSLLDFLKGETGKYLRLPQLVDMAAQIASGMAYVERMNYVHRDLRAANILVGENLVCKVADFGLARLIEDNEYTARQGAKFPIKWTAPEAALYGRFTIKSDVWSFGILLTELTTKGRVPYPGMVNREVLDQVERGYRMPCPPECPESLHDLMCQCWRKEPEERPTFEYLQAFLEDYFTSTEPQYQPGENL

The term pIC50 denotes the IC50 on a negative log10 scale, so that one unit is a factor of ten. Read a high pIC50 as a low IC50. In turn, `CC1CN(c2ccc(Nc3ncc4ccc(=O)n(C5CCCCC5)c4n3)cc2)CC(C)N1CCO` (stereo not shown) [Example 143, 8-Cyclohexyl-2-{4-[4-(2-hydroxy-ethyl)-3,5-dimethyl-piperazin-1-yl]-phenylamino}-8H-pyrido[2,3-d]pyrimidin-7-one] gave a pIC50 of 5.73.

For the origin of these results see US6498163B1, “Pyrido[2,3-D]pyrimidines and 4-aminopyrimidines as inhibitors of cellular proliferation” (Warner-Lambert Company, priority 1997, dated 2002).
